Measurements as given in patent publication EP4417602A1, “SUBSTITUTED PYRAZOLE CARBOXAMIDES, SALTS THEREOF AND THEIR USE AS HERBICIDALLY ACTIVE SUBSTANCES” (Bayer AG, priority 2023, dated 2024).

Experiments:
ZEAMX [1] = experiment: D. Pre-emergence effects on crop plants (Tables D); format: in vivo, Zea mays; conditions: crop plant
Description: (§1) Seeds of mono- and dicotyledonous weed plants and crop plants were sown, in plastic or organic planting pots, in sandy loam and covered with soil. The compounds according to the invention, formulated in the form of wettable powders (WP) or as emulsifiable concentrates (EC), were applied to the surface of the covering soil as aqueous suspension or emulsion, with the addition of 0.5% of an additive, at an application rate of 6001 of water/ha (converted).
(§2) Following treatment, the pots were placed in a greenhouse and kept under optimum growth conditions for the test plants. The visual grading of the damage to the test plants was carried out after ca. 3 weeks in comparison to untreated controls (herbicidal effect in percent (%): 100% effect = plants have died off, 0% effect = as control plants).
(§3) Tables D1 to D5 below show the effects of various compounds of the general formula (I) according to Table 1 on various crop plants and an application rate corresponding to 320 g/ha or below obtained by the experimental procedure mentioned above in Biological Examples, Section C. Table D1a: pre-emergence activity at 320g/ha against ZEAMX in %

TRZAS [2] = experiment: D. Pre-emergence effects on crop plants (Tables D); format: in vivo, Triticum aestivum; conditions: crop plant
Description: as §1, §2, §3

GLXMA [3] = experiment: D. Pre-emergence effects on crop plants (Tables D); format: in vivo, Glycine max; conditions: crop plant
Description: as §1, §2, §3

BRSNW [4] = experiment: D. Pre-emergence effects on crop plants (Tables D); format: in vivo, Brassica napus; conditions: crop plant
Description: as §1, §2, §3

ZEAMX [5] = experiment: F. Post-emergence effects on crop plants (Tables F); format: in vivo, Zea mays; conditions: crop plant
Description: (§4) Seeds of mono- and dicotyledonous weed plants and crop plants were sown, in plastic or organic planting pots, in sandy loam, covered with soil and grown in a greenhouse under controlled growth conditions. 2 to 3 weeks after sowing, the test plants were sprayed in the single-leaf stage. The compounds according to the invention, formulated in form of wettable powders (WP) or as emulsifiable concentrates (EC), were sprayed onto the green plant parts as aqueous suspension or emulsion, with the addition of 0.5% of an additive, at an application rate of 6001 of water/ha (converted). The test plants were placed in the greenhouse for ca. 3 weeks under optimum growth conditions, and then the effect of the preparations was assessed visually in comparison with untreated controls (herbicidal effect in percent (%): 100% effect = plants have died off, 0% effect = as control plants). Tables F1 to F5 below show the effects of selected compounds of the general formula (I) according to table 1 on various crop plants and an application rate corresponding to 320 g/ha or below obtained by the experimental procedure mentioned above. Table […]: post-emergence activity at 320g/ha against ZEAMX in %

TRZAS [6] = experiment: as above; format: in vivo, Triticum aestivum; conditions: crop plant
Description: as §4

GLXMA [7] = experiment: as above; format: in vivo, Glycine max; conditions: application rate 320 g/ha, crop plant
Description: as §4

BRSNW [8] = experiment: as above; format: in vivo, Brassica napus; conditions: application rate 320 g/ha, crop plant
Description: as §4

ECHCG [9] = experiment: A. Herbicidal pre-emergence action on harmful plants (Tables A); format: in vivo, Echinochloa crus-galli; conditions: visual grading after ca. 3 weeks vs untreated controls, 100% = plants have died off, 0% = as control plants
Method in brief: (§5)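 Values are visual percent damage relative to untreated controls, scored ca. 3 weeks after the compound was sprayed on the covering soil of sown pots (sandy loam) at rates up to 1280 g/ha, formulated as WP or EC with 0.5% additive.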

LOLRI = experiment: as above; format: in vivo, Lolium rigidum; conditions: visual grading after ca. 3 weeks vs untreated controls, 100% = plants have died off, 0% = as control plants
Method in brief: as §5

MATIN [10] = experiment: as above; format: in vivo, Matricaria inodora; conditions: visual grading after ca. 3 weeks vs untreated controls, 100% = plants have died off, 0% = as control plants
Method in brief: as §5

SETVI [11] = experiment: as above; format: in vivo, Setaria viridis; conditions: visual grading after ca. 3 weeks vs untreated controls, 100% = plants have died off, 0% = as control plants
Method in brief: as §5

STEME [12] = experiment: as above; format: in vivo, Stellaria media; conditions: visual grading after ca. 3 weeks vs untreated controls, 100% = plants have died off, 0% = as control plants
Method in brief: as §5

POAAN [13] = experiment: as above; format: in vivo, Poa annua
Method in brief: as §5

AMARE = experiment: as above; format: in vivo, Amaranthus retroflexus
Method in brief: as §5

ALOMY = experiment: as above; format: in vivo, Alopecurus myosuroides
Method in brief: as §5

VERPE [14] = experiment: as above; format: in vivo, Veronica persica; conditions: application rate 1280 g/ha; Table A11
Description: Seeds of mono- and dicotyledonous weed plants were sown in plastic pots (double sowings with one species of mono- and one species of dicotyledonous weed plants per pot), in sandy loam, and covered with soil. The compounds according to the invention, formulated in the form of wettable powders (WP) or as emulsifiable concentrates (EC), were applied to the surface of the covering soil as aqueous suspension or emulsion, with the addition of 0.5% of an additive, at an application rate of 6001 of water per hectare (converted). Following treatment, the pots were placed in a greenhouse and kept under optimum growth conditions for the test plants. The visual grading of the damage to the test plants was carried out after ca. 3 weeks in comparison to untreated controls (herbicidal effect in percent (%): 100% effect = plants have died off, 0% effect = as control plants). Tables A1 to A12, below, show the effects of selected compounds of the general formula (I) according to table 1 on various harmful plants and an application rate corresponding to 1280 g/ha or below obtained by the experimental procedure mentioned above. Table A1: pre-emergence activity at 1280g/ha against ABUTH in %

DIGSA [15] = experiment: as above; format: in vivo, Digitaria sanguinalis
Method in brief: as §5

ABUTH = experiment: B. Herbicidal post-emergence action on harmful plants (Tables B); format: in vivo, Abutilon theophrasti
Procedure: (§6) Seeds of mono- and dicotyledonous weed plants were placed in plastic pots in sandy loam soil (doubly sown with in each case one species of mono- or dicotyledonous weed plants per pot), covered with soil and cultivated in a greenhouse under controlled growth conditions. 2 to 3 weeks after sowing, the test plants were treated at the one-leaf stage. The compounds of the invention, formulated in the form of wettable powders (WP) or as emulsion concentrates (EC), were applied onto the green parts of the plants as aqueous suspension or emulsion with addition of 0.5% additive at a water application rate of 600 liters per hectare (converted). After the test plants had been kept in the greenhouse under optimum growth conditions for about 3 weeks, the activity of the preparations was rated visually in comparison to untreated controls. For example, 100% activity = the plants have died, 0% activity = like control plants. Tables B1 to B12, below, show the effects of selected compounds of the general formula (I) according to table 1 on various harmful plants and an application rate corresponding to 1280 g/ha or below obtained by the experimental procedure mentioned above. Table B1a: post-emergence activity at 1280g/ha against ABUTH in %

ECHCG [16] = experiment: as above; format: in vivo, Echinochloa crus-galli
Method in brief: (§7)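 Greenhouse weeds grown in sandy loam were sprayed post-emergence at the one-leaf stage, 2-3 weeks after sowing. Compounds were applied as WP or EC in water with 0.5% additive at 600 L/ha, at 1280 g/ha or below. Visual damage was rated after about 3 weeks versus untreated plants (0-100%).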

MATIN [17] = experiment: as above; format: in vivo, Matricaria inodora
Procedure: as §6

SETVI [18] = experiment: as above; format: in vivo, Setaria viridis; conditions: application rate 1280 g/ha; Table B5
Procedure: as §6

STEME [19] = experiment: as above; format: in vivo, Stellaria media; conditions: application rate 1280 g/ha; Table B6
Procedure: as §6

POAAN [20] = experiment: as above; format: in vivo, Poa annua
Method in brief: as §7

VERPE [21] = experiment: as above; format: in vivo, Veronica persica
Method in brief: as §7

DIGSA [22] = experiment: as above; format: in vivo, Digitaria sanguinalis; conditions: application rate 1280 g/ha; Table B12a
Procedure: as §6

[23] = application rate 1280 g/ha, visual grading after ca. 3 weeks vs untreated controls, 100% = plants have died off, 0% = as control plants

Cn1cc(C(=O)N2CCCC2Cc2ccccc2F)c(COCC2COC2)n1 (racemic) [Example I-091]
0%: pre-emergence activity against ZEAMX (ZEAMX [1]; application rate 80 g/ha, Table D1b) | pre-emergence activity against ZEAMX (ZEAMX [1]; application rate 320 g/ha, Table D1a) | pre-emergence activity against TRZAS (TRZAS [2]; application rate 80 g/ha, Table D2b) | pre-emergence activity against TRZAS (TRZAS [2]; application rate 320 g/ha, Table D2a) | pre-emergence activity against GLXMA (GLXMA [3]; application rate 80 g/ha, Table D4b) | pre-emergence activity against GLXMA (GLXMA [3]; application rate 320 g/ha, Table D4a) | pre-emergence activity against BRSNW in % (BRSNW [4]; application rate 80 g/ha) | pre-emergence activity against BRSNW in % (BRSNW [4]; application rate 320 g/ha) | post-emergence activity against ZEAMX in % (ZEAMX [5]; application rate 80 g/ha) | post-emergence activity against ZEAMX in % (ZEAMX [5]; application rate 320 g/ha) | post-emergence activity against TRZAS in % (TRZAS [6]; application rate 80 g/ha) | post-emergence activity against TRZAS in % (TRZAS [6]; application rate 320 g/ha) | post-emergence activity against GLXMA in % (GLXMA [7]) | post-emergence activity against BRSNW in % (BRSNW [8])

COCc1nn(C)cc1C(=O)N1CCCC1Cc1c(F)cccc1F (single isomer, unassigned) [Example I-082]
100%: pre-emergence activity against ECHCG (ECHCG [9]; application rate 1280 g/ha) | pre-emergence activity against LOLRI (LOLRI; application rate 320 g/ha) | pre-emergence activity against LOLRI (LOLRI; application rate 1280 g/ha) | pre-emergence activity against SETVI (SETVI [11]; application rate 320 g/ha) | pre-emergence activity against SETVI (SETVI [11]; application rate 1280 g/ha) | pre-emergence activity against POAAN (POAAN [13]; application rate 80 g/ha, Table A7c) | pre-emergence activity against POAAN (POAAN [13]; application rate 320 g/ha, Table A7b) | pre-emergence activity against POAAN (POAAN [13]; [23]) | pre-emergence activity against DIGSA (DIGSA [15]; application rate 80 g/ha, Table A12c) | pre-emergence activity against DIGSA (DIGSA [15]; application rate 320 g/ha, Table A12b) | pre-emergence activity against DIGSA (DIGSA [15]; application rate 1280 g/ha, Table A12a) | post-emergence activity against POAAN (POAAN [20]; application rate 1280 g/ha, Table B7a)
90%: pre-emergence activity against ECHCG (ECHCG [9]; application rate 80 g/ha) | pre-emergence activity against ECHCG (ECHCG [9]; application rate 320 g/ha) | pre-emergence activity against LOLRI (LOLRI; application rate 80 g/ha) | pre-emergence activity against MATIN (MATIN [10]; application rate 80 g/ha) | pre-emergence activity against MATIN (MATIN [10]; application rate 320 g/ha) | pre-emergence activity against MATIN (MATIN [10]; application rate 1280 g/ha) | pre-emergence activity against SETVI (SETVI [11]; application rate 80 g/ha) | pre-emergence activity against STEME (STEME [12]; application rate 80 g/ha) | pre-emergence activity against STEME (STEME [12]; application rate 320 g/ha) | pre-emergence activity against STEME (STEME [12]; application rate 1280 g/ha) | pre-emergence activity against AMARE (AMARE; application rate 320 g/ha, Table A8b) | pre-emergence activity against AMARE (AMARE; [23]) | pre-emergence activity against ALOMY (ALOMY; application rate 320 g/ha, Table A9b) | pre-emergence activity against ALOMY (ALOMY; application rate 1280 g/ha, Table A9a) | pre-emergence activity against VERPE (VERPE [14]) | post-emergence activity against ABUTH (ABUTH; application rate 320 g/ha, treated at the one-leaf stage, rated visually after about 3 weeks vs untreated controls, 100% = the plants have died, 0% = like control plants) | post-emergence activity against ABUTH (ABUTH; application rate 1280 g/ha, Table B1a) | post-emergence activity against ECHCG (ECHCG [16]; application rate 320 g/ha, Table B2b) | post-emergence activity against ECHCG (ECHCG [16]; application rate 1280 g/ha, Table B2a) | post-emergence activity against MATIN (MATIN [17]; application rate 320 g/ha, Table B4b) | post-emergence activity against MATIN (MATIN [17]; application rate 1280 g/ha, Table B4a) | post-emergence activity against SETVI (SETVI [18]) | post-emergence activity against STEME (STEME [19]) | post-emergence activity against POAAN (POAAN [20]; application rate 80 g/ha, Table B7c) | post-emergence activity against POAAN (POAAN [20]; application rate 320 g/ha, Table B7b) | post-emergence activity against VERPE (VERPE [21]; application rate 320 g/ha, Table B11b) | post-emergence activity against VERPE (VERPE [21]; application rate 1280 g/ha, Table B11a) | post-emergence activity against DIGSA (DIGSA [22])
